Two compounds from patent publication US9956205B2, “Polymorphic forms of 2-(5-bromo-4-(4-cyclopropylnaphthalen-1-yl)-4H-1,2,4-triazol-3-ylthio)acetic acid and uses thereof” (Ardea Biosciences, Inc., priority 2010, dated 2018) can be followed below.

What all share (assay type): physicochemical
Data set [1] is described as follows: Gravimetric vapor sorption (GVS) study. Particulars: at high humidity. From the text: FIG. 12 illustrates a GVS study of form 1 and form 2. […] This property of decreased hygroscopicity greatly aids in the preparation of solid pharmaceutical dosage forms.
Data set [2] is described as follows: Solid held in equilibrium with its saturated solvent solution at 60° C. Particulars: saturated acetone solution, 6 days.
The nature of data set [3]: Solubility in acetate buffer (25 mM, pH 5), assayed by HPLC. The conditions noted are these: 25 °C, pH 5, aqueous buffer, thermodynamic from solid; for solubility at 5 day: Day 5; for solubility at 7 day: Day 7. On the procedure: Form 1 (˜25 mg) and acetate buffer (25 mM, pH 5, 4 mL), prepared with and without sodium chloride (ionic strength adjusted to=0.1M), were placed in a glass vial which was sealed and placed on a laboratory rotator in a 25° C. incubator. After 1, 5, and 7 days the samples were filtered and assayed by HPLC.
Form 2 (˜25 mg) and acetate buffer (25 mM, pH 5, 4 mL), prepared with and without sodium chloride (ionic strength adjusted to=0.1M), were placed in a glass vial which was sealed and placed on a laboratory rotator in a 25° C. incubator. After 1, 5, and 7 days the samples were filtered and assayed by HPLC.

Data set [4] can be described thus: Drug substance stability of packaged solid. Particulars: 1 month, double LDPE bags inside HDPE container.
Method: Form 2 of 2-(5-bromo-4-(4-cyclopropylnaphthalen-1-yl)-4H-1,2,4-triazol-3-ylthio)acetate was tested under various conditions to determine drug substance stability. […] Packaging was in a double low density polyethylene plastic bags inside a HDPE container.

In brackets after ≈: the same amount, converted by molar mass.

As for `O=C(O)CSc1nnc(Br)n1-c1ccc(C2CC2)c2ccccc12` [Form 1, 2-(5-bromo-4-(4-cyclopropylnaphthalen-1-yl)-4H-1,2,4-triazol-3-ylthio)acetic acid], the “adsorption (hygroscopicity) by GVS” value in data set [1] is reported as < 0.2 % w/w. The “outcome of equilibration with saturated solution” value in data set [2] is on record as “decomposition”. In addition, the solubility at 5 day is 257 µg/mL (≈ 635 µM) in data set [3] (pH 5, NaCl (I = 0.1)) and 213 µg/mL (≈ 528 µM) in data set [3] (pH 5, No NaCl). Besides, the solubility at 7 day amounted to 304 µg/mL (≈ 753 µM) in data set [3] (pH 5, NaCl (I = 0.1)) and 157 µg/mL (≈ 388 µM) in data set [3] (pH 5, No NaCl). In data set [3] (pH 5, No NaCl, Day 1), this compound displayed a solubility at 1 day of 265 µg/mL (≈ 656 µM).
For the compound `O=C(O)CSc1nnc(Br)n1-c1ccc(C2CC2)c2ccccc12` [Form 2, 2-(5-bromo-4-(4-cyclopropylnaphthalen-1-yl)-4H-1,2,4-triazol-3-ylthio)acetic acid], the “adsorption (hygroscopicity) by GVS” value in data set [1] is listed as < 0.1 % w/w. Moreover, the “degradation of packaged drug substance” value in data set [4] (25° C.-60% RH) and in data set [4] (40° C.-75% RH) was “No degradation” each time.

As usually defined, the solubility is the dissolved amount per volume that the medium holds. A higher solubility goes with a readily soluble substance.
